The record followed here is article PMC9132415, “Identification of 1H-pyrazolo[3,4-b]pyridine derivatives as novel and potent TBK1 inhibitors: design, synthesis, biological evaluation, and molecular docking study” (Journal of Enzyme Inhibition and Medicinal Chemistry, 2022).

Each structure is given as a SMILES string.

Assay [1] concerns ifnb and cxcl10 gene expression in THP-1 cells. Description: mRNA detection of TBK1 downstream genes (RT-PCR), poly(I:C)-stimulated THP-1 cells. Format: cell-based, human. The note with it: compound at 1 µM.
For another assay, the target named is T1, TBK1 (Homo sapiens, UniProt Q9UHD2).
T1 sequence (Q9UHD2 1-729): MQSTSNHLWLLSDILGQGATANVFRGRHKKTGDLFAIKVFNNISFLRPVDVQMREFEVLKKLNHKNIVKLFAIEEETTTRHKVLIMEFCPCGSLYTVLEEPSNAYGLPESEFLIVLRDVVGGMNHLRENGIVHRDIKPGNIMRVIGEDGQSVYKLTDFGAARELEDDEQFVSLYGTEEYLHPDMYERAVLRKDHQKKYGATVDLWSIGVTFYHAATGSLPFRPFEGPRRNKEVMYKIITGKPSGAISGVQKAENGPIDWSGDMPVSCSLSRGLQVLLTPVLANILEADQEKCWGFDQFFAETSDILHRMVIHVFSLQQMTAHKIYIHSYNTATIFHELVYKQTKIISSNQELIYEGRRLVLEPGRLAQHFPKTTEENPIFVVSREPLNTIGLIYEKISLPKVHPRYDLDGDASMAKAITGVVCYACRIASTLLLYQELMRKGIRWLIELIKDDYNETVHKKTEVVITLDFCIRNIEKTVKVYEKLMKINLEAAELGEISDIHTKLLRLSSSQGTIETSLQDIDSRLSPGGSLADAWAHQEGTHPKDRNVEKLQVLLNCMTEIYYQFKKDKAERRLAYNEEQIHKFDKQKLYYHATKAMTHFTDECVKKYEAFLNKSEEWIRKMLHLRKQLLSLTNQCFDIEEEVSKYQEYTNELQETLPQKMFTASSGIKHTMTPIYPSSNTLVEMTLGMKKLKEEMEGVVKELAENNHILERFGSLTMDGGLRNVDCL
Description: FRET-based Z'-LYTE TBK1 enzymatic assay. Format: biochemical. The arrangement: purchased Thermo Scientific A31513. The note with it: 100 µM ATP.

Broadly, the inhibition is the drop in the measured response relative to a control, in per cent. As usually defined, the IC50 is the point on the concentration scale where inhibition reaches its midpoint. As for `Cc1nc2c(F)cc(-c3n[nH]c4ncc(-c5cccc(S(N)(=O)=O)c5)cc34)cc2n1C(C)C` [Compound 15y], in assay [1], the “inhibition of cxcl10 expression” value is over 93% and the “inhibition of ifnb expression” value was over 93%. Besides, the inhibition at 0.0001 µM at TBK1 (compound at 0.1 nM, read-out: TBK1 inhibition (%) 0.1 nM) was 33.6%. Further, the inhibition at 0.001 µM at TBK1 (compound at 1 nM, read-out: TBK1 inhibition (%) 1 nM) came to 88.8%. Besides, the inhibition at 0.01 µM at TBK1 (compound at 10 nM, read-out: TBK1 inhibition (%) 10 nM) was found to be 93.8%. Besides, on TBK1 (compound at 100 nM, read-out: TBK1 inhibition (%) 100 nM), the inhibition at 0.1 µM was 102%. The inhibition at 1 µM at TBK1 (compound at 1 μM, read-out: TBK1 inhibition (%) 1 μM) was found to be 53.9%. This compound also yielded an IC50 at TBK1 (mean of two separate experiments) of 200 pM.
